Results published in article PMC5421785, “Citrullination only infrequently impacts peptide binding to HLA class II MHC” (PLoS ONE, 2017).
Where two headings read alike, the source gives them in different places. Square brackets hold non-standard residues; d marks the D form. Peptide text beside a SMILES is read from it. Cit = NC(=O)NCCC[C@H](N)C(=O)O

Legend:
HLA-DRB1*01:01 = molecular target: T1, HLA-DRB1*01:01 (Homo sapiens, UniProt P01903+P01911, A100R/D57E/F55L/F60I/F76Y/I96L/L162R/M171V/P40L/Q125E/R42F/V115G/Y59C); experiment: HLA class II peptide binding, inhibition of radiolabeled peptide binding to purified MHC
T1 construct: EBV transformed homozygous cell lines were used as sources of MHC molecules; endogenous in cells; host or cells: EBV transformed homozygous cell lines

HLA-DRB1*04:01 = molecular target: T2, HLA-DRB1*04:01 (Homo sapiens, UniProt P01903+P01911, A100K/A169T/F76Y/I96L/K127E/L162R/M171V/N62H/P40V/Q125Y/R42H/S133A/S149N/S66Y/V115G/V209L/W38E); experiment: as above
T2 construct: EBV transformed homozygous cell lines were used as sources of MHC molecules; endogenous in cells; host or cells: EBV transformed homozygous cell lines

[1] = citrullinated 15-mer peptide (X = citrulline), purified HLA-DRB1*01:01, read-out: DRB1*01:01 binding capacity, Cit peptide (IC50 nM)
[2] = citrullinated 15-mer peptide (X = citrulline), purified HLA-DRB1*04:01, read-out: DRB1*04:01 binding capacity, Cit peptide (IC50 nM)
[3] = citrullinated 15-mer (X), purified MHC, inhibition of radiolabeled peptide binding, dash = IC50 >40,000 nM, read-out: DRB1*01:01 binding capacity, Cit peptide (IC50 nM)
[4] = citrullinated 15-mer (X), purified MHC, inhibition of radiolabeled peptide binding, dash = IC50 >40,000 nM, read-out: DRB1*04:01 binding capacity, Cit peptide (IC50 nM)
[5] = ratio of WT IC50 to Cit IC50, >1 = citrullination increases binding

CC[C@H](C)[C@H](NC(=O)[C@H](CC(=O)O)NC(=O)[C@@H](NC(=O)[C@@H](NC(=O)[C@@H]1CCCN1C(=O)[C@H](CC(C)C)NC(=O)[C@H](CCCNC(=N)N)NC(=O)[C@H](CO)NC(=O)[C@@H](NC(=O)[C@H](CCCCN)NC(=O)[C@H](CCC(N)=O)NC(=O)[C@H](CO)NC(=O)[C@H](CCCNC(N)=O)NC(=O)[C@H](Cc1ccc(O)cc1)NC(=O)[C@@H](N)CCC(=O)O)[C@@H](C)O)[C@@H](C)CC)[C@@H](C)CC)C(=O)O [EYXSQKTSRLPIIDI] (H-EY[Cit]SQKTSRLPIIDI-OH)
IC50 (HLA-DRB1*01:01; citrullinated peptide as listed (X at Cit position), read-out: DRB1*01:01 binding capacity Cit peptide (IC50 nM)): 5.9 nM | IC50 (HLA-DRB1*01:01; value of the wild-type (non-citrullinated) counterpart of the listed peptide, read-out: DRB1*01:01 binding capacity WT peptide (IC50 nM)): 14 nM | IC50 (HLA-DRB1*04:01; citrullinated peptide as listed (X at Cit position), read-out: DRB1*04:01 binding capacity Cit peptide (IC50 nM)): 473 nM | IC50 (HLA-DRB1*04:01; value of the wild-type (non-citrullinated) counterpart of the listed peptide, read-out: DRB1*04:01 binding capacity WT peptide (IC50 nM)): 314 nM

CC[C@H](C)[C@H](NC(=O)[C@@H](NC(=O)[C@H](CC(=O)O)NC(=O)[C@H](CCC(N)=O)NC(=O)[C@H](Cc1ccc(O)cc1)NC(=O)[C@H](CC(N)=O)NC(=O)[C@H](C)NC(=O)[C@H](C)NC(=O)[C@H](CCC(=O)O)NC(=O)[C@@H](NC(=O)[C@H](C)NC(=O)[C@@H](N)Cc1ccccc1)C(C)C)[C@@H](C)O)C(=O)NCC(=O)N[C@@H](CCCNC(N)=O)C(=O)N[C@@H](CC(C)C)C(=O)O [FAVEAANYQDTIGXL] (H-FAVEAANYQDTIG[Cit]L-OH)
IC50 (HLA-DRB1*01:01; [1]): 642 nM | IC50 (HLA-DRB1*04:01; [2]): 768 nM

CC(C)C[C@H](NC(=O)[C@H](CCC(=O)O)NC(=O)[C@H](CCC(N)=O)NC(=O)[C@H](CC(C)C)NC(=O)[C@H](CCC(=O)O)NC(=O)[C@@H](NC(=O)[C@H](CCCCN)NC(=O)[C@H](CCC(=O)O)NC(=O)[C@H](CC(N)=O)NC(=O)[C@@H](NC(=O)[C@H](CCCNC(N)=O)NC(=O)[C@@H](NC(=O)[C@H](CC(N)=O)NC(=O)[C@H](CCCCN)NC(=O)[C@@H](N)Cc1ccccc1)[C@@H](C)O)[C@@H](C)O)C(C)C)C(=O)O [FKNTXTNEKVELQEL] (H-FKNT[Cit]TNEKVELQEL-OH)
IC50 (HLA-DRB1*01:01; [3]): 9330 nM | IC50 (HLA-DRB1*04:01; [4]): 1140 nM

CC(C)C[C@H](NC(=O)[C@H](CC(=O)O)NC(=O)[C@H](CC(C)C)NC(=O)[C@H](CCCNC(N)=O)NC(=O)[C@H](C)NC(=O)[C@H](CC(C)C)NC(=O)[C@H](CO)NC(=O)[C@H](C)NC(=O)[C@H](CC(N)=O)NC(=O)[C@H](CC(=O)O)NC(=O)[C@@H](NC(=O)[C@H](CC(=O)O)NC(=O)[C@H](CCC(N)=O)NC(=O)[C@H](CCCNC(=N)N)NC(=O)[C@@H](N)Cc1ccccc1)C(C)C)C(=O)O [FRQDVDNASLAXLDL] (H-FRQDVDNASLA[Cit]LDL-OH)
IC50 (HLA-DRB1*01:01; [3]): 3940 nM | IC50 (HLA-DRB1*04:01; [4]): 279 nM

CC[C@H](C)[C@H](NC(=O)[C@H](C)NC(=O)[C@H](CC(=O)O)NC(=O)[C@H](C)NC(=O)[C@H](CC(C)C)NC(=O)[C@H](CO)NC(=O)[C@@H](N)Cc1ccccc1)C(=O)N[C@@H](CC(N)=O)C(=O)N[C@H](C(=O)N[C@@H](CCC(=O)O)C(=O)N[C@@H](Cc1ccccc1)C(=O)N[C@@H](CCCCN)C(=O)N[C@@H](CC(N)=O)C(=O)N[C@H](C(=O)N[C@@H](CCCNC(N)=O)C(=O)O)[C@@H](C)O)[C@@H](C)O [FSLADAINTEFKNTX] (H-FSLADAINTEFKNT[Cit]-OH)
IC50 (HLA-DRB1*01:01; [3]): 41 nM | IC50 (HLA-DRB1*04:01; [4]): 22600 nM

CC(C)C[C@H](NC(=O)[C@H](CC(=O)O)NC(=O)[C@H](CC(C)C)NC(=O)[C@H](CCCNC(=N)N)NC(=O)[C@H](C)NC(=O)[C@H](CC(C)C)NC(=O)[C@H](CO)NC(=O)[C@H](C)NC(=O)[C@H](CC(N)=O)NC(=O)[C@H](CC(=O)O)NC(=O)[C@@H](NC(=O)[C@H](CC(=O)O)NC(=O)[C@H](CCC(N)=O)NC(=O)[C@H](CCCNC(N)=O)NC(=O)[C@@H](N)Cc1ccccc1)C(C)C)C(=O)O [FXQDVDNASLARLDL] (H-F[Cit]QDVDNASLARLDL-OH)
IC50 (HLA-DRB1*01:01; [3]): 7990 nM | IC50 (HLA-DRB1*04:01; [4]): 280 nM

CC(C)[C@H](NC(=O)CNC(=O)[C@H](C)NC(=O)[C@H](C)NC(=O)CNC(=O)[C@H](CC(=O)O)NC(=O)[C@H](CCCNC(N)=O)NC(=O)CNC(=O)[C@@H]1CCCN1C(=O)[C@@H]1CCCN1C(=O)CNC(=O)[C@H](CC(=O)O)NC(=O)[C@H](C)NC(=O)CN)C(=O)N[C@@H](CCCCN)C(=O)O [GADGPPGXDGAAGVK] (H-GADGPPG[Cit]DGAAGVK-OH; N-terminus and C-terminus assumed)
IC50 (HLA-DRB1*01:01; [1]): > 40000 nM | DRB1*01:01 binding capacity, WT/cit ratio (HLA-DRB1*01:01; [5]): 1.0 | IC50 (HLA-DRB1*04:01; [2]): > 40000 nM | DRB1*04:01 binding capacity, WT/cit ratio (HLA-DRB1*04:01; [5]): 1.0
